{"source": "paper PMC12412968", "about": "“Indolicidin derivatives as potent dual-action antifungal and antibacterial agents for the treatment of skin infections: A comprehensive study from in vitro to in vivo evaluation” (PLOS One, 2025)", "key": {"[1]": {"tested_on": "Staphylococcus epidermidis", "assay_type": "cell-based", "settings": "24 h", "protocol": "(§1) Bacteria (S. aureus, P. aeruginosa, S. epidermidis, E. coli, K. pneumoniae, Enterococcus) and Candida albicans from ATCC were cultured in appropriate media, adjusted to 10^6 CFU/mL before testing. The bacteria and fungal, taken from a deep freezer, were revived by culturing them in a nutrient-rich medium, to grow and form distinct colonies. These colonies were then diluted with physiological saline to reach a turbidity equivalent to 0.5 McFarland, corresponding to a bacterial and fungal concentration of 10⁸ CFU/mL. This suspension was further diluted with 0.9% saline to achieve a concentration of 10⁶ CFU/mL. Subsequently, the bacterial and fungal suspension were diluted 100-fold in Brain-Heart Infusion (BHI) broth to achieve a final concentration of 10⁴ CFU/mL. This bacterial and fungal suspension were used to determine the MIC values in the experiments. Peptides (IND and IND-4,11K) were diluted by 2-fold serial dilution in the range of […] and tested in 96-well plates containing Muller-Hinton (MH) medium. After adding bacteria (10^4 CFU/mL), the samples were incubated at 37°C for 24 h. MIC was determined as the lowest peptide concentration at which no bacterial growth was observed by measuring the optical density OD620 nm. […] The positive controls were Streptomycin for Gram-negative bacteria and Penicillin for Gram-positive bacteria. The negative control was 1X PBS solution. The positive control for antifungal activity was Nystatin.All experiments were performed in triplicate."}, "Candida albicans": {"tested_on": "Candida albicans", "assay_type": "cell-based", "settings": "24 h", "protocol": "as §1"}, "Enterococcus faecium": {"tested_on": "Enterococcus faecium", "assay_type": "cell-based", "settings": "24 h", "protocol": "as §1"}, "Pseudomonas aeruginosa": {"tested_on": "Pseudomonas aeruginosa", "assay_type": "cell-based", "settings": "24 h", "protocol": "as §1"}, "[2]": {"tested_on": "S. aureus, S. epidermidis, E. coli, K. pneumoniae, E. faecium, and P. aeruginosa", "assay_type": "cell-based", "settings": "Staphylococcus aureus, Staphylococcus epidermidis and Enterococcus faecium", "protocol": "as §1"}, "Staphylococcus aureus": {"tested_on": "Staphylococcus aureus", "assay_type": "cell-based", "settings": "24 h", "protocol": "as §1"}, "Klebsiella pneumoniae": {"tested_on": "Klebsiella pneumoniae", "assay_type": "cell-based", "settings": "24 h", "protocol": "as §1"}, "red blood cell": {"tested_on": "red blood cell", "assay": "Hemolysis assay", "assay_type": "cell-based", "excerpt": "The hemolysis assay results indicated a concentration-dependent effect of the peptides on red blood cell membrane integrity."}, "trypsin": {"tested_on": "trypsin", "assay": "Enzymatic stability with trypsin", "assay_type": "in vitro ADME", "settings": "40 µM in PBS pH 8.0, 0.0005% trypsin, 37°C, 600 rpm, 15 and 30 minutes, HPLC-DAD 280 nm, duplicate"}, "[3]": {"settings": "64 µM in PBS pH 7.4, 25, 45, 65, 85°C and 37°C, shaking 600 rpm, HPLC-DAD 280 nm, tryptophan internal standard, duplicate", "protocol": "Peptides were dissolved in phosphate-buffered saline (PBS, pH 7.0) and 10% SDS solution. The peptide concentration was determined by direct weighing and mixing. The secondary structure was analyzed using a circular dichroism (CD) spectrometer. Peptides (64 µM) were dissolved in PBS (pH 7.4) with tryptophan as an internal standard. The solution was incubated at 25°C, 45°C, 65°C, and 85°C with shaking at 600 rpm. Peptide quantification was performed using HPLC-DAD at 280 nm with an injection volume of 20 µL. Each experiment was conducted in duplicate, and data were processed using Excel based on peak areas of tryptophan and peptide. Peptides (40 µM) were dissolved in PBS (pH 8.0) and incubated with 0.0005% trypsin at 37°C under shaking (600 rpm). Samples were collected at 0, 15, and 30 minutes and analyzed by HPLC-DAD at 280 nm with an injection volume of 40 µL [20, 21]."}, "[4]": {"settings": "broth dilution, 96-well, MH medium, 10^4 CFU/mL, 37°C, OD620, triplicate"}, "[5]": {"settings": "plated from MIC well and higher onto MH agar, triplicate"}}, "note": "Like-named read-outs stand apart in the source and are kept apart here. Ends that are not written are not given here."}
{"molecule": "CC[C@H](C)[C@H](N)C(=O)N[C@@H](CC(C)C)C(=O)N1CCC[C@H]1C(=O)N[C@@H](Cc1c[nH]c2ccccc12)C(=O)N[C@@H](CCCCN)C(=O)N[C@@H](Cc1c[nH]c2ccccc12)C(=O)N1CCC[C@H]1C(=O)N[C@@H](Cc1c[nH]c2ccccc12)C(=O)N[C@@H](Cc1c[nH]c2ccccc12)C(=O)N1CCC[C@H]1C(=O)N[C@@H](Cc1c[nH]c2ccccc12)C(=O)N[C@@H](CCCNC(=N)N)C(=O)N[C@@H](CCCNC(=N)N)C(N)=O", "note": "[IND, Indolicidin]", "values": [{"measurement": "MIC", "setting": "[1]; [4]", "result": 8, "unit": "µM"}, {"measurement": "MBC", "setting": "[1]; [5]", "result": 8, "unit": "µM"}, {"measurement": "MIC", "setting": "Candida albicans; [4]", "result": 64, "unit": "µM"}, {"measurement": "MBC", "setting": "Candida albicans; [5]", "result": ">128", "unit": "µM"}, {"measurement": "MIC", "setting": "Enterococcus faecium; [4]", "result": 32, "unit": "µM"}, {"measurement": "MBC", "setting": "Enterococcus faecium; [5]", "result": 32, "unit": "µM"}, {"measurement": "MIC", "setting": "Pseudomonas aeruginosa; [4]", "result": ">128", "unit": "µM"}, {"measurement": "MBC", "setting": "Pseudomonas aeruginosa; [5]", "result": ">128", "unit": "µM"}, {"measurement": "MIC (range over organisms)", "setting": "[2]", "result": "8 to 64", "unit": "µM"}, {"measurement": "MIC", "setting": "Staphylococcus aureus; [4]", "result": 64, "unit": "µM"}, {"measurement": "MBC", "setting": "Staphylococcus aureus; [5]", "result": 64, "unit": "µM"}, {"measurement": "MIC", "setting": "Klebsiella pneumoniae; [4]", "result": ">128", "unit": "µM"}, {"measurement": "MBC", "setting": "Klebsiella pneumoniae; [5]", "result": ">128", "unit": "µM"}, {"measurement": "Hemolysis activity", "setting": "red blood cell; peptide 2 uM", "result": "3.04 ± 0.29", "unit": "%"}, {"measurement": "Hemolysis activity", "setting": "red blood cell; peptide 4 uM", "result": "2.51 ± 0.24", "unit": "%"}, {"measurement": "Hemolysis activity", "setting": "red blood cell; peptide 8 uM", "result": "3.05 ± 0.34", "unit": "%"}, {"measurement": "Hemolysis activity", "setting": "red blood cell; peptide 16 uM", "result": "4.89 ± 0.03", "unit": "%"}, {"measurement": "Hemolysis activity", "setting": "red blood cell; peptide 32 uM", "result": "10.33 ± 1.06", "unit": "%"}, {"measurement": "Hemolysis activity", "setting": "red blood cell; peptide 64 uM", "result": "18.09 ± 1.57", "unit": "%"}, {"measurement": "Hemolysis activity", "setting": "red blood cell; peptide 128 uM", "result": "30.91 ± 2.27", "unit": "%"}, {"measurement": "Enzymatic stability with trypsin", "setting": "trypsin", "result": "significant degradation"}, {"measurement": "Thermal stability (retention time and peak area)", "setting": "[3]", "result": "remained largely unchanged"}]}
{"molecule": "ILKWKWPWWKWRR-NH2 [IND-4,11K]", "values": [{"measurement": "MBC", "setting": "[1]", "result": 8, "unit": "µM"}, {"measurement": "MIC", "setting": "[1]", "result": 8, "unit": "µM"}, {"measurement": "MBC", "setting": "Candida albicans", "result": 32, "unit": "µM"}, {"measurement": "MIC", "setting": "Candida albicans", "result": 32, "unit": "µM"}, {"measurement": "MBC", "setting": "Enterococcus faecium", "result": 32, "unit": "µM"}, {"measurement": "MIC", "setting": "Enterococcus faecium", "result": 32, "unit": "µM"}, {"measurement": "MBC", "setting": "Pseudomonas aeruginosa", "result": 128, "unit": "µM"}, {"measurement": "MIC", "setting": "Pseudomonas aeruginosa", "result": 128, "unit": "µM"}, {"measurement": "MBC", "setting": "Staphylococcus aureus", "result": 48, "unit": "µM"}, {"measurement": "MIC", "setting": "Staphylococcus aureus", "result": 48, "unit": "µM"}, {"measurement": "MBC", "setting": "Klebsiella pneumoniae", "result": 128, "unit": "µM"}, {"measurement": "MIC", "setting": "Klebsiella pneumoniae", "result": 128, "unit": "µM"}, {"measurement": "Enzymatic stability with trypsin", "setting": "trypsin", "result": "significant degradation"}, {"measurement": "Thermal stability (retention time and peak area)", "setting": "[3]", "result": "remained largely unchanged"}]}
